Experimental data from US20230107195A1, “TREATMENT OF CANCER WITH SMG1-INHIBITORS” (Celgene Corporation, priority 2017, published 2023).
“Also recorded” adds a separate entry of the source.

Assays:
TORK [1] = target: T1, TORK (Homo sapiens, UniProt P42345); assay: Western blot for markers of TORK inhibition (pS6 and p4EBP1) in HCT-116 cells; type: cell-based; conditions: parental and DNAPK−/− HCT116 cells
SMG1 [2] = target: T2, SMG1 (Homo sapiens, UniProt Q96Q15); assay: Western blot for marker of SMG1 inhibition (pATM/ATR substrate band colocalizing with UPF1) in HCT-116 cells; type: cell-based; conditions: parental and DNAPK−/− HCT116 cells
T2 construct: endogenous in cells; host or cells: HCT-116 parental and HCT-116 DNA-PK-/- cells
Description: SDS-PAGE and Western blot: Equal amounts of protein were subjected to SDS-PAGE using 3-8% tris-acetate protein gels (Thermo Fisher Scientific #A03755BOX, for DNA-PK, SMG1 and vinculin detection) and 4-12% bis-tris protein gels (Thermo Fisher Scientific #NP0323BOX, for phospho-(Ser/Thr) ATM/ATR substrate, UPF1, GAPDH, S6, phospho-4E-BP1, and cofilin detection). Proteins were electrophoretically transferred to 0.2 μm nitrocellulose membranes (Thermo Fisher Scientific #LC2000) and blocked for 1 hour with Odyssey Blocking Buffer TBS (LI-COR #927-50000). Membranes from 3-8% tris-acetate gels were incubated overnight with antibodies against total DNA-PK (Cell Signaling #12311), phospho DNA-PK (Ser2056) (Abcam #ab124918), total SMG1 (Cell Signaling #9149) and vinculin (Sigma #V9264). Membranes from 4-12% bis-tris gels were incubated overnight with antibodies against phospho-(Ser/Thr) ATM/ATR substrate (Cell Signaling #2851), total UPF1 (Sigma #SAB 1402893), GAPDH (Santa Cruz #47724), total S6 Ribosomal Protein (Santa Cruz #74459), phosphoS6 Ribosomal Protein (Ser240/244) (Cell Signaling #5364), phospho-4E-BP1 (Thr70) (Cell Signaling #9455), and cofilin (Santa Cruz #376476). Membranes were washed with TBST and incubated with IRDye 800CW Goat anti-Rabbit IgG (LI-COR #926-32211) and IRDye 680LT Goat anti-Mouse IgG (LI-COR #926-68020) secondary antibodies for 1 hour. […]

DNA-PK = target: T3, DNA-PK (Homo sapiens, UniProt P78527); assay: ActivX KiNativ assay (probe binding, LC-MS); conditions: 0.3 μM and 1.0 μM dose, 1 h, four different cell lines
T3 construct: lysates were prepared from cell pellets and incubated with ADP and ATP probes; endogenous in cells
Experimental: (§1) After 1 h, the medium was aspirated; cells were rinsed once with ice cold PBS, scraped off and transferred to a 15 ml conical tube. Cells were pelleted by centrifugation, the supernatant was discarded and pellets were frozen on dry ice and stored at −80° C. KiNativ assay: Briefly, lysates were prepared from cell pellets and incubated with ADP and ATP probes. After a tryptic digest, the probe labeled peptides were characterized and quantified using targeted Liquid Chromatography-Mass Spectrometry (LC-MS). Percent inhibition is defined as the reduction of probe binding in the presence of compound, indicating binding of the compound to the kinase.

SMG1 [3] = target: T2, SMG1; assay: ActivX KiNativ assay (probe binding, LC-MS); conditions: 0.3 μM and 1.0 μM dose, 1 h, four different cell lines
Experimental: as §1

TORK [4] = target: T1, TORK; assay: ActivX KiNativ assay (probe binding, LC-MS); design: lysates were prepared from cell pellets and incubated with ADP and ATP probes; endogenous in cells; conditions: 0.3 μM and 1.0 μM dose, 1 h, four different cell lines

T2 sequence (Q96Q15 whole entry): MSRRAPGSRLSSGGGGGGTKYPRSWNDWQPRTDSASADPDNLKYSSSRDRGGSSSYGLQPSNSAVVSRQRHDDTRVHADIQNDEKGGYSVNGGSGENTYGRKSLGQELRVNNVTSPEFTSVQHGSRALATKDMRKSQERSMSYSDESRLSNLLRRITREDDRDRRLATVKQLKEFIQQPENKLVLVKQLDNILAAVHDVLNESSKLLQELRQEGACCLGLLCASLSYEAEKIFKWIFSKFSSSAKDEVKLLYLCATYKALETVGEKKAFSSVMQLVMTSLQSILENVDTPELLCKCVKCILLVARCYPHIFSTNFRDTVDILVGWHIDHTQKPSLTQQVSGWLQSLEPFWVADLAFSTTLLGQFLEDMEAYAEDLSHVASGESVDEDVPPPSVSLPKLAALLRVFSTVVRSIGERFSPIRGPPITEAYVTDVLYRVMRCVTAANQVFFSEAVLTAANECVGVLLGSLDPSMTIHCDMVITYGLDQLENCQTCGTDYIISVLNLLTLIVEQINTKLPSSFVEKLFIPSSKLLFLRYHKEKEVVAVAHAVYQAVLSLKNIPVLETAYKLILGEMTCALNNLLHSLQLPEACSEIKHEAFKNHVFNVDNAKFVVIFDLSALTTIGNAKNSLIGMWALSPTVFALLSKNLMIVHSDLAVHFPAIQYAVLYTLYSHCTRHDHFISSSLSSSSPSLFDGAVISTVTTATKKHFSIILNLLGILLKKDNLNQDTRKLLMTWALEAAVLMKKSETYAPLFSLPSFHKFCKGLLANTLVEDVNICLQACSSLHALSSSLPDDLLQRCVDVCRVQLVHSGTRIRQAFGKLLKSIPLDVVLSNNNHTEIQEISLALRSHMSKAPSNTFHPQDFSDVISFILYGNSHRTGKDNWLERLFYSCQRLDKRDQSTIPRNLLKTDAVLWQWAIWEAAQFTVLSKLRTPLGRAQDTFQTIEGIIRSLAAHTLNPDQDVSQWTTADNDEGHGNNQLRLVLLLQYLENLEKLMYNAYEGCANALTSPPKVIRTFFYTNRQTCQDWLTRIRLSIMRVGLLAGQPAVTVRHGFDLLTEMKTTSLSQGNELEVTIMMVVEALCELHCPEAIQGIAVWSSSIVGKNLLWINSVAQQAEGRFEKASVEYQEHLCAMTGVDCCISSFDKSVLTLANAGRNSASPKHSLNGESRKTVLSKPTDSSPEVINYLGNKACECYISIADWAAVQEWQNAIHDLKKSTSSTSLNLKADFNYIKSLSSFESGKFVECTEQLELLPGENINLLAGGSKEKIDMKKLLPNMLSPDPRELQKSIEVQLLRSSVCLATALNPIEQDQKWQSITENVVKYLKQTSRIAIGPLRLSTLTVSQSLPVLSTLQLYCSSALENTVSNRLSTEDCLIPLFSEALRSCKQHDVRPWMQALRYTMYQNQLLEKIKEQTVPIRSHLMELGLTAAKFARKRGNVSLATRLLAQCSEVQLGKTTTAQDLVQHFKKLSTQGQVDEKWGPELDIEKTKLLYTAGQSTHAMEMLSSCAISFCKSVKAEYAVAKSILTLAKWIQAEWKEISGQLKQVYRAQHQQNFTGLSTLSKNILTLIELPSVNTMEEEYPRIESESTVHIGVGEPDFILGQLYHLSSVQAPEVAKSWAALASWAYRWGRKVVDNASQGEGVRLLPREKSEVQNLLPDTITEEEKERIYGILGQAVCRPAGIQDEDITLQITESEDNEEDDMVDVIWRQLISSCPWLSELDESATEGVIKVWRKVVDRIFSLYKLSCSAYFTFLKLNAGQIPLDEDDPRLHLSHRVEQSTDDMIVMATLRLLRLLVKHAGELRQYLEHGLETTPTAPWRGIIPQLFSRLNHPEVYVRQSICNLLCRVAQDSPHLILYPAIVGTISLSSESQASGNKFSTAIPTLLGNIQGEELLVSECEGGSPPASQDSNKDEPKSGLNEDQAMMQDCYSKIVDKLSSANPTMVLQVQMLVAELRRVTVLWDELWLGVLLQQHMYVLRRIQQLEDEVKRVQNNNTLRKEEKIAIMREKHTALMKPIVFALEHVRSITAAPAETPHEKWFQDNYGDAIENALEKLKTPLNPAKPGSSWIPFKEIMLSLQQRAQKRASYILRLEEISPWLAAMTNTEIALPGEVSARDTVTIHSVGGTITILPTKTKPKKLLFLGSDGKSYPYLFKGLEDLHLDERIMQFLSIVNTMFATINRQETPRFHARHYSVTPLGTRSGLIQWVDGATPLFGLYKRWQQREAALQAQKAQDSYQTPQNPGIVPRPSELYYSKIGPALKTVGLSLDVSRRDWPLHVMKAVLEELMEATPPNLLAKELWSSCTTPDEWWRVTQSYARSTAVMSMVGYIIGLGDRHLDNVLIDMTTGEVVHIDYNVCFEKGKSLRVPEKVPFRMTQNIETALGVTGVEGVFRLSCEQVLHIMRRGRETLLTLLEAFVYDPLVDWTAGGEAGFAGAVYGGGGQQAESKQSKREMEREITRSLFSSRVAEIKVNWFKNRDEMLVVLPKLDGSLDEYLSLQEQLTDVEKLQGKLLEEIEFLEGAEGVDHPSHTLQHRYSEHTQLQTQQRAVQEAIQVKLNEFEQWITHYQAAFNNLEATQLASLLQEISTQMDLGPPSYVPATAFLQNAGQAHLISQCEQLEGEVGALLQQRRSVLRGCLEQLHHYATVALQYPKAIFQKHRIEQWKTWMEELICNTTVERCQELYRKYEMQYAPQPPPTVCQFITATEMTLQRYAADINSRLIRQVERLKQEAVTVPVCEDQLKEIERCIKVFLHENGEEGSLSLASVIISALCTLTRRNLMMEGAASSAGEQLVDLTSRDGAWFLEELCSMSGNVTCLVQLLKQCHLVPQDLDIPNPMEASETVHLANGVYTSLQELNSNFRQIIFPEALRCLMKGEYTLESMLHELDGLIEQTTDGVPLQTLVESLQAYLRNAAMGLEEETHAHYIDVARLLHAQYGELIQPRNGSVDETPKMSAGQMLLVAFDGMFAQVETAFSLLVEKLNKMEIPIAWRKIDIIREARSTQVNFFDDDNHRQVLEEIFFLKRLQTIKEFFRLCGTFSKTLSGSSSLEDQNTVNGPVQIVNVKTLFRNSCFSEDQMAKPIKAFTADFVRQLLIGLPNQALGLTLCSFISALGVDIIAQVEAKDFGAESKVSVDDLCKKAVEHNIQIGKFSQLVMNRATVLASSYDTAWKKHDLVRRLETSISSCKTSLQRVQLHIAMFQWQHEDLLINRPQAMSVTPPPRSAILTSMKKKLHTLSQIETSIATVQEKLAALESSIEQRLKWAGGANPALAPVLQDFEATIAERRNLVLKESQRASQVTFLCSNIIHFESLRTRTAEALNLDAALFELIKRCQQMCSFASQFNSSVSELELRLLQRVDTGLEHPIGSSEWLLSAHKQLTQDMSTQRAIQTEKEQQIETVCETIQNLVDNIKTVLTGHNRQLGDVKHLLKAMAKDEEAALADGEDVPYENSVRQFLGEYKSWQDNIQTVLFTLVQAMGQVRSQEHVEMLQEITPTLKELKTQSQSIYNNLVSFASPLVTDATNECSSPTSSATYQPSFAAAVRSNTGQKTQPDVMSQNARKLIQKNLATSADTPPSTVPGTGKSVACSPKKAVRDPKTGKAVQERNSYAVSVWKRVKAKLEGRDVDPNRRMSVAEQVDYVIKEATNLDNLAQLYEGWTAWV

CO[C@H]1CC[C@H](N2C(=O)CNc3ncc(-c4ccc(C(C)(C)O)nc4)nc32)CC1 [Compound 2, 7-(6-(2-hydroxypropan-2-yl)pyridin-3-yl)-1-((trans)-4-methoxycyclohexyl)-3,4-dihydropyrazino[2,3-b]pyrazin-2(1H)-one]
markers of TORK inhibition (pS6 and p4EBP1) (TORK [1]): binds to TORK (pS6 and p4EBP1) only; also recorded: reduced
marker of SMG1 inhibition (pATM/ATR substrate, pUPF1) (SMG1 [2]): binds to TORK (pS6 and p4EBP1) only; also recorded: not by Compound 2
binding to DNA-PK (% inhibition of probe binding) (DNA-PK): only binds TORK
binding to SMG1 (% inhibition of probe binding) (SMG1 [3]): only binds TORK
binding to TORK (% inhibition of probe binding) (TORK [4]): only binds TORK
